Experimental data from ChEMBL document CHEMBL3259589, “Synthesis and radical-scavenging activity of a dimethyl catechin analogue” (Bioorg Med Chem Lett, 2014).

Experiment: Antioxidant activity assessed as galvinoxyl free radical scavenging activity measured as second order rate constant by spectrophotometry
Format: functional

With `Oc1cc(O)c2c(c1)O[C@H](c1ccc(O)c(O)c1)[C@@H](O)C2` the K (10'1mol/dm3/s) was 3.87.
